Test results taken from patent EP1218024B1, “ASPARTAME DERIVATIVES FOR DECREASING BLOOD VISCOSITY” (Oklahoma Medical Research Foundation, priority 1999, dated 2001).
Where a SMILES comes first, the peptide text is derived from it.

Tests used:
whole blood viscosity [1] = experiment: Whole blood viscosity by RBC pipette method, before and after oral APM administration to patients; assay type: in vivo
Method: Blood samples were obtained from ten patients having homozygous HgBss disease or heterozygous Hgbsc disease before and after a blinded administration of APM at 1.5 (low dose), 3 (medium dose), or 6 (high dose) milligrams per kilogram body weight. TABLE I: Patient Characteristics
Viscosity determinations using the RBC pipette method of Wright and Jenkins (1970, Blood 36:516) were made on each blinded whole blood sample before and 120 minutes after blinded administration of APM. Each measurement was made in triplicate. Control viscosity measurements using saline and water for each patient and normal whole blood were also made to validate the viscosity measurements.
(§1) To measure viscosity, 1.01 cc of the test fluid, i.e., either water, saline or blood, was drawn into an RBC pipette using a 50 cc syringe attached via rubber tubing to the top of the RBC pipette. Using a constant pressure of 20 mm by maintaining the pressure with visual feedback and hand pressure, the amount of time it took for the test fluid to drip out of the RBC pipette was measured with a stopwatch. Each measurement was made in triplicate. Changes in viscosity from baseline for patient blood samples were recorded and compared to normal controls.

sickle cells = experiment: Metabisulfite slide test to measure sickling in blood samples; assay type: cell-based, patients
whole blood viscosity [2] = experiment: Whole blood viscosity by RBC pipette method after in vitro addition of APM to patient blood samples; design: species or system patients; conditions: for viscosity of the blood samples compared to the control: samples at 480 minutes post-treatment, additional 1 or 2 milligrams/milliliter APM in vitro
Method: as §1
Samples with high viscosity readings at 480 minutes or 1,440 minutes post-treatment, chosen to represent patients with a validated response to APM who were returning to normal, were divided and treated with an additional 0, 1, or 2 milligrams/milliliter APM in vitro, in an effort to measure whether a second inducible sickling response was possible and if a second response to the in vitro APM addition could be observed. The viscosity of each sample at 480 minutes post-treatment was measured.

[3] = system: red blood cells containing HbS; conditions: disclosed in WO 00/18418; cited from earlier work
[4] = clinical trial; unknown mechanism; cited from earlier work
[5] = all ten patients, baseline vs 120 minutes post-treatment, APM 1.5, 3 or 6 mg/kg body weight

## COC(=O)[C@H](Cc1ccccc1)NC(=O)[C@@H](N)CC(=O)O [APM, N-L-alpha-aspartyl-L-phenylalanine 1-methyl ester] (H-Asp-Phe-OMe)
Whole blood viscosity [1]; APM given orally
  viscosity of HgBss blood: reduces
Whole blood viscosity [1]; APM in vivo
  effect on Hgbsc blood: not affected
Whole blood viscosity [1]; HgBss patients, baseline vs 120 minutes post-treatment
  No. of Patients, Viscosity change decreasing, HgBss: 5
Whole blood viscosity [1]; Hgbsc patients, baseline vs 120 minutes post-treatment
  No. of Patients, Viscosity change increasing, Hgbsc: 3
Whole blood viscosity [1]; [5]
  No. of Patients, Viscosity change decreasing: 7
  No. of Patients, Viscosity change increasing: 3
Whole blood viscosity [1]; blood samples from patients with sickle cell disease (HgBss)
  viscosity compared against Pirofsky's change in viscosity vs. hematocrit standard: decreased
Whole blood viscosity [1]; blood samples from patients with sickle cell trait (Hbgsc)
  viscosity compared against Pirofsky's change in viscosity vs. hematocrit standard: increased
Whole blood viscosity [1]; five patients identified as HgBss, baseline vs 120 minutes post-treatment
  blood viscosity after treatment over time: decreased
Whole blood viscosity [1]; sbthal patients, baseline vs 120 minutes post-treatment
  No. of Patients, Viscosity change decreasing, sbthal: 2
Whole blood viscosity [1]; three patients diagnosed as Hgbsc, baseline vs 120 minutes post-treatment
  viscosity after treatment over time: increased
Whole blood viscosity [1]; two patients diagnosed as sbthal, baseline vs 120 minutes post-treatment
  blood viscosity after treatment over time: decreased
Sickle cells; APM given orally
  number of sickle cells in HgBss blood: reduces
Sickle cells; addition of APM in vitro
  number of sickle cells in HgBss blood: reduces
Whole blood viscosity [2]; APM in vitro
  effect on Hgbsc blood: not affected
Whole blood viscosity [2]; HgBss patients
  viscosity of the blood samples compared to the control: decreased
Whole blood viscosity [2]; Hgbsc patients
  viscosity of the blood samples compared to the control: increase
Whole blood viscosity [2]; addition of APM in vitro
  viscosity of HgBss blood: reduces
[3]
  capacity of red blood cells containing HbS to sickle with hypoxemia: reduction
[4]
  pain and inflammation of osteo- and mixed osteo- and rheumatoid arthritis: alleviate
